Measured values reported in patent publication US20120264735A1 (priority 2009, published 2012).

target: T1, c-Met kinase (recombinant c-Met) (Homo sapiens, UniProt P08581); test: In vitro kinase assay I (homogeneous time-resolved fluorescence tyrosine kinase assay); type: biochemical
T1 construct: 0.27 nM recombinant c-Met
Procedure, shortened: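 Biotinylated peptide (0.5 μM) phosphorylated by 0.2 nM recombinant c-Met with 50 μM MgATP, 60 min at room temperature, pH 7.4, 5% DMSO. EDTA stop; HTRF read with Eu-anti-phosphotyrosine antibody and streptavidin-APC. IC50 from 4-parameter logistic fit.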

T1 sequence (P08581 25-1390): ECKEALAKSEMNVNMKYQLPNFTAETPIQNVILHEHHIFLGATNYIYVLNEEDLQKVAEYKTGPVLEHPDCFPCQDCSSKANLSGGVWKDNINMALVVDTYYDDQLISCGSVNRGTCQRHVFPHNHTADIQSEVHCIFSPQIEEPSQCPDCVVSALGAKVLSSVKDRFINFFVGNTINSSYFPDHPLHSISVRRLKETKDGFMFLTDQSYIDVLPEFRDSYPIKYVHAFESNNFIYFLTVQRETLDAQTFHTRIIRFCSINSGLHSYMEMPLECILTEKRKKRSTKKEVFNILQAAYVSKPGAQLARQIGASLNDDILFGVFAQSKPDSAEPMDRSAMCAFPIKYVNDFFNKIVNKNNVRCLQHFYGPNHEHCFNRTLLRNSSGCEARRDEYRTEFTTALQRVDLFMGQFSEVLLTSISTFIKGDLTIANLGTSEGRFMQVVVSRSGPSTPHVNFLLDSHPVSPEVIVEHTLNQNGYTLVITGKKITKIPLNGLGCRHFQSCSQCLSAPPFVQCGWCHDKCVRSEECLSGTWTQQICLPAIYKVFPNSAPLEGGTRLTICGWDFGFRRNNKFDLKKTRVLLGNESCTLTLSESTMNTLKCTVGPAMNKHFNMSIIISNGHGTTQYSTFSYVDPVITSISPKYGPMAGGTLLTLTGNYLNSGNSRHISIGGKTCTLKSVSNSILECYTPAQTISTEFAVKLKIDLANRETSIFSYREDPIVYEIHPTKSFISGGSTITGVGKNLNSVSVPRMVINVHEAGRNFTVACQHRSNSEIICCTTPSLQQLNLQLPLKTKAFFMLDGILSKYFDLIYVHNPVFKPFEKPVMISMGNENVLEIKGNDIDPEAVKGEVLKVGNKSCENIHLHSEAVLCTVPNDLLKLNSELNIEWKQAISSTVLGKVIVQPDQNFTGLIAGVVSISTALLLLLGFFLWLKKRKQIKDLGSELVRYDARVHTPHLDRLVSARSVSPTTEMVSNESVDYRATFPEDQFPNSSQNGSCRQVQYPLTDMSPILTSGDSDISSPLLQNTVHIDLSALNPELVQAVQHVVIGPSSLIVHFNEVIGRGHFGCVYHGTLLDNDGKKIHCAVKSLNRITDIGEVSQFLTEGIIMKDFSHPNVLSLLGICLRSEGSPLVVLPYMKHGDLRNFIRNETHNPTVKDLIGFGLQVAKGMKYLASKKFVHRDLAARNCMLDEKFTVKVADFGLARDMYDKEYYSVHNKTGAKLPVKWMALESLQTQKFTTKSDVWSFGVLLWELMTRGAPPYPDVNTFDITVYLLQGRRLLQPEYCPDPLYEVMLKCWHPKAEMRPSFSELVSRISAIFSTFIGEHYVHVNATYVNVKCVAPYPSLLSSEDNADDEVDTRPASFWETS

| SMILES | IC50 [nM] |
| --- | --- |
| Cc1noc(-c2cccc(Cc3nn(-c4cnn(C)c4)ccc3=O)c2)n1 [Example 41, 3-[3-(3-methyl-1,2,4-oxadiazol-5-yl)benzyl]-1-(1-methyl-1H-pyrazol-4-yl)pyridazin-4(1H)-one] | 1000 to 3000 |
| Cc1ccc2c(Cc3nn(-c4cnn(C)c4)ccc3=O)cccc2n1 [Example 44, 1-(1-methyl-1H-pyrazol-4-yl)-3-[(2-methylquinolin-5-yl)methyl]pyridazin-4(1H)-one] | 1000 to 3000 |
| COCc1cnc(-c2cccc(Cc3nn(-c4cnn(C)c4)ccc3=O)c2)nc1 [Example 161, 3-{3-[5-(methoxymethyl)pyrimidin-2-yl]benzyl}-1-(1-methyl-1H-pyrazol-4-yl)pyridazin-4(1H)-one] | < 100 |
| Cn1cc(-n2ccc(=O)c(Cc3cccc(-c4ncc(CN5CCCC5)cn4)c3)n2)cn1 [Example 429, 1-(1-methyl-1H-pyrazol-4-yl)-3-{3-[5-(pyrrolidin-1-ylmethyl)pyrimidin-2-yl]benzyl}pyridazin-4(1H)-one] | < 100 |
| CC(C)COC(=O)Nc1cccc(Cc2nn(-c3cnn(CCCC(=O)NCC(C)(C)O)c3)ccc2=O)c1 [Example 705, 2-methylpropyl (3-{[1-(1-{4-[(2-hydroxy-2-methylpropyl)amino]-4-oxobutyl}-1H-pyrazol-4-yl)-4-oxo-1,4-dihydropyridazin-3-yl]methyl}phenyl) carbamate] | < 100 |
| CC(C)Cc1nc(-c2cccc(Cc3nn(-c4cnn(C)c4)ccc3=O)c2)no1 [Example 742, 3-{3-[5-(2-methylpropyl)-1,2,4-oxadiazol-3-yl]benzyl}-1-(1-methyl-1H-pyrazol-4-yl)pyridazin-4(1H)-one] | 100 to 1000 |
| CCc1cnc(-c2cccc(C(C)c3nn(-c4ccc(F)c(F)c4)ccc3=O)c2)nc1 (single isomer, unassigned) [Example 231, 1-(3,4-difluorophenyl)-3-{(1R or S)-1-[3-(5-ethylpyrimidin-2-yl)phenyl]ethyl}pyridazin-4(1H)-one] | < 100 |
| CN(C)CCOC(=O)Nc1cccc(Cc2nn(-c3cc(F)c(F)c(F)c3)ccc2=O)c1 [Example 546, 2-(dimethylamino)ethyl (3-{[4-oxo-1-(3,4,5-trifluorophenyl)-1,4-dihydropyridazin-3-yl]methyl}phenyl)carbamate] | < 100 |
| Cn1cc(-n2ccc(=O)c(Cc3cccc(-c4noc(CN5CCOCC5)n4)c3)n2)cn1 [Example 743, 1-(1-methyl-1H-pyrazol-4-yl)-3{3-[5-(morpholin-4-ylmethyl)-1,2,4-oxadiazol-3-yl]benzyl}pyridazin-4(1H)-one] | 100 to 1000 |
| CCC(C)c1cnc(-c2cccc(Cc3nn(-c4cnn(C)c4)ccc3=O)c2)nc1 (racemic) [Example 408, rac-3-{3-[5-(Butan-2-yl)pyrimidin-2-yl]benzyl}-1-(1-methyl-1H-pyrazol-4-yl)pyridazin-4(1-1)-one] | < 100 |
| O=C(Nc1cccc(Cc2nn(-c3ccc(F)c(F)c3)ccc2=O)c1)OCCN1CCS(=O)(=O)CC1 [Example 528, 2-(1,1-dioxidothio-morpholin-4-yl)ethyl-(3-{[1-(3,4-difluorophenyl)-4-oxo-1,4-dihydropyridazin-3-yl]methyl}phenyl)carbamate] | < 100 |
| Cn1cc(-n2ccc(=O)c(Cc3cccc(-c4ncc(N5CCC6CCCCC6C5)cn4)c3)n2)cn1 (mixture of isomers) [Example 443, 1-(1-methyl-1H-pyrazol-4-yl)-3-{3-[5-(octahydroiso-quinolin-2(1H)-yl)pyrimidin-2-yl]benzyl}pyridazin-4(1H)-one] | < 100 |
| CCn1cc(-n2ccc(=O)c(C(C)c3cccc(-c4ncc(OC(C)C)cn4)c3)n2)cn1 (single isomer, unassigned) [Example 293, 1-(1-ethyl-1H-pyrazol-4-yl)-3-[(1R or S)-1-{3-[5-(1-methylethoxy)pyrimidin-2-yl]phenyl}ethyl]pyridazin-4(1H)-one] | < 100 |
| CC(C)COC(=O)Nc1cccc(Cc2nn(-c3cnn(CCCN(C)C)c3)ccc2=O)c1 [Example 667, 2-Methylpropyl {3-[(1-{1-[3-(dimethylamino)propyl]-1H-pyrazol-4-yl}-4-exo-1,4-dihydropyridazin-3-yl)methyl]phenyl}carbamate] | 100 to 1000 |
| Cn1cc(-n2ccc(=O)c(Cc3cccc(NC(=O)OC4CCNCC4)c3)n2)cn1 [Example 618, piperidin-4-yl (3-{[1-(1-methyl-1H-pyrazol-4-yl)-4-oxo-1,4-dihydropyridazin-3-yl]methyl}phenyl)carbamate] | 100 to 1000 |
| CC(c1cccc(-c2ncc(OC3CCNCC3)cn2)c1)c1nn(-c2cnn(C)c2)ccc1=O (racemic) [Example 334, rac-1-(1-Methyl-1H-pyrazol-4-yl)-3-(1-{3-[5-(piperidin-4-yloxy)pyrimidin-2-yl]phenyl}ethyl)pyridazin-4(1H)-one] | < 100 |
| O=C(Nc1cccc(Cc2nn(-c3cc(F)c(F)c(F)c3)ccc2=O)c1)OCC1CCC1 [Example 555, cyclobutylmethyl (3-{[4-oxo-1-(3,4,5-trifluorophenyl)-1,4-dihydropyridazin-3-yl]methyl}phenyl)carbamate] | < 100 |
| N#Cc1cccc(-n2ccc(=O)c(Cc3cccc(NC(=O)OCCN4CCS(=O)(=O)CC4)c3)n2)c1 [Example 596, 2-(1,1-dioxidothio-morpholin-4-yl)ethyl (3-{[1-(3-cyanophenyl)-4-oxo-1,4-dihydropyridazin-3-yl]methyl}phenyl)carbamate] | < 100 |
| [2H]C([2H])([2H])C([2H])([2H])Oc1cnc(-c2cccc(Cc3nn(-c4cnn(C)c4)ccc3=O)c2)nc1 [Example 275, 3-[3-(5-ethoxypyrimidin-2-yl)benzyl]-1-(1-methyl-1H-pyrazol-4-yl)pyridazin-4(1H)-one-d5] | < 100 |
| COCCOC(=O)Nc1cccc(Cc2nn(-c3cc(F)cc(Cl)c3)ccc2=O)c1 [Example 509, 2-methoxyethyl (3-{[1-(3-chloro-5-fluorophenyl)-4-oxo-1,4-dihydropyridazin-3-yl]methyl}phenyl)carbamate] | < 100 |
| COCCOc1cnc(-c2cccc(C(CCO)c3nn(-c4cnn(C)c4)ccc3=O)c2)nc1 (racemic) [Example 253, rac-3-(3-Hydroxy-1-{3-[5-(2-methoxyethoxy)pyrimidin-2-yl]phenyl}propyl)-1-(1-methyl-1H-pyrazol-4-yl)pyridazin-4(1H)-one] | 1000 to 3000 |
| CN(C)C(=O)CCOC(=O)Nc1cccc(Cc2nn(-c3cc(F)c(F)c(F)c3)ccc2=O)c1 [Example 561, 3-(dimethylamino)-3-oxopropyl (3-{[4-oxo-1-(3,4,5-trifluorophenyl)-1,4-dihydropyridazin-3-yl]methyl}phenyl)carbamate] | < 100 |
| CN1CCN(CCOC(=O)Nc2cccc(Cc3nn(-c4cc(F)cc(F)c4)ccc3=O)c2)CC1 [Example 519, 2-(4-methylpiperazin-1-yl)ethyl (3-{[1-(3,5-difluorophenyl)-4-oxo-1,4-dihydropyridazin-3-yl]methyl}phenyl)carbamate] | < 100 |
| Cn1cc(-n2ccc(=O)c(Cc3cccc(-c4ncc(C5CCNCC5)cn4)c3)n2)cn1 [Example 200, 1-(1-Methyl-1H-pyrazol-4-yl)-3-{3-[5-(piperidin-4-yl)pyrimidin-2-yl]benzyl}pyridazin-4(1H)-one] | < 100 |
